Laboratory results published in patent US11066668B2, “Compositions and methods for modulation of IKBKAP splicing” (Ionis Pharmaceuticals, Inc., priority 2012, dated 2021).
Oligonucleotides are written 5' to 3', each unit as a sugar letter and its base; * is a phosphorothioate linkage, no mark a phosphodiester; rarer units and linkages stand in square brackets, end groups in braces. Plain capitals give the bases only. e = 2'-O-(2-methoxyethyl) (MOE); [5mC] = 5-methylcytosine

What was measured:
Assay type in all cases: cell-based, human
[1] = tested on: IKAP protein; assay: IKAP protein levels in GM04899 fibroblasts (SDS-PAGE, anti-IKAP antibody, band intensity)
Protocol: Protein samples were obtained by Trizol extraction and separated by SDS-PAGE. The bands were transferred onto a nitrocellulose membrane and probed with an anti-IKAP antibody (abcam #ab56362) (1:1,000 dilution in 5% milk in TBST) for 12 hrs. The membrane was washed 5 times with TBST for 5 min each and then probed with secondary antibody 800 nm LiCor (1:5,000 in 5% milk in TBST) for 1 hr in the dark. The membrane was subsequently washed 5 times with TBST for 5 min each. The bands were then exposed at 800 nm and band intensity was quantified using an Odyssey (LiCor) instrument. The results are presented in Table 4 as percent increase in band intensity compared to the control oligonucleotide-treated bands.

[2] = tested on: IKBKAP mRNA in GM04899 fibroblasts; assay: Exon 20 inclusion in FD patient skin fibroblast line GM04899 (RT-PCR); conditions: GM04899, kinetin treatment for 3 days, concentration not given; relative to IMR90 cells (100%)
Protocol: To investigate the effect of ISIS 421992 on patient-derived fibroblasts, the patient skin fibroblast line GM04899 (Coriell Cell Repository) was utilized. The cell line was derived from an individual homozygous for the major FD mutation.
GM04899 was cultured in minimal essential medium (Invitrogen) supplemented with non-essential amino acids (Invitrogen) and 20% (v/v) fetal bovine serum. The cells were grown to 40-50% confluence in 10-cm dishes. Cells were transfected with 2 nM, 5 nM, 25 nM, or 125 nM concentrations of ISIS 421992 using 12 μL Lipofectamine 2000 transfection reagent (Invitrogen). Two days later, cDNA synthesized from total RNA extracted from HEK-293 cells was amplified using the forward primer pCDNAF and reverse primer sequence IKAP21R4 to assay the splicing pattern of expressed RNAs by RT-PCR. To calculate exon 20 inclusion levels, the PCR amplicons were labeled with α^32P-dCTP. The PCR products were then separated by native PAGE, followed by phosphorimage analysis. The band intensities were quantified and values were normalized for the G+C content according to the DNA sequence. Multiple lanes for each condition represent independent experiments.
A batch of cells was treated with solvent (NaOH) only of the kinetin solution as a control. RNA from IMR90, a wild-type normal diploid lung fibroblast cell line was used as positive control. The results are expressed as percent inclusion of exon 20 compared to the exon 20 inclusion (100%) of IKBKAP mRNA in IMR90 cells.

[3] = tested on: IKBKAP pre-mRNA (mt19-21 minigene); assay: Exon 20 inclusion in HEK-293 cells harboring the mt19-21 IKBKAP minigene (RT-PCR); conditions: Table 2 (microwalk experiment); HEK-293 with mt19-21 minigene, 0.007 nmol oligonucleotide by electroporation, RT-PCR two days later
Protocol: Antisense oligonucleotides were designed targeting a human IKBKAP nucleic acid and were tested for their effects on IKBKAP pre-mRNA in vitro. Together, the overlapping antisense oligonucleotides spanned the entire 74-nucleotide region of the IKBKAP exon 20 sequence, as well as the 100-nucleotide intronic regions immediately upstream and downstream of exon 20. The antisense oligonucleotides are presented in Table 1, and were designed as uniform 2′-O-methoxyethyl ribose (MOE) oligonucleotides with phosphate backbones. Each oligonucleotide is 15 nucleosides in length. All cytosine residues throughout the oligonucleotide are 5-methylcytosines. ‘Start Site’ indicates the 5′-most nucleoside to which the oligonucleotide is targeted in the human gene sequence. “Stop site” indicates the 3′-most nucleoside to which the oligonucleotide is targeted in the human gene sequence. Each oligonucleotide listed in Table 1 is targeted to the human IKBKAP genomic sequence (the complement of GENBANK Accession No NT_008470.16 truncated from nucleotides 13290828 to Ser. No. 13/358,424, designated herein as SEQ ID NO: 1). ISIS 414161 has one mismatch with SEQ ID NO: 1.
Cultured HEK-293 cells harboring the mt19-21 minigene vector construct at a density of 7×10^5 cells per well were transfected using electroporation (Gene Pulsar II apparatus, Bio-Rad) with 0.007 nmol antisense oligonucleotide, as previously described (Hua, Y., et al., 2007. PLoS Biol 5:e73). […] These oligonucleotides served as controls for non-specific effects of uniform MOE oligonucleotides with phosphate backbones. Cells harboring the wt19-21 minigene and the mt19-21 minigene alone were also cultured and were used as controls for exon 20 inclusion levels. Two days later, cDNA synthesized from total RNA extracted from HEK-293 cells was amplified using the forward primer pCDNAF and reverse primer sequence IKAP21R4 to assay the splicing pattern of expressed RNAs by RT-PCR. To calculate exon 20 inclusion levels, the PCR amplicons were labeled with α^32P-dCTP. The PCR products were then separated by native PAGE, followed by phosphorimage analysis on a FUJIFILM FLA-5100 instrument (Fuji Medical Systems USA Inc.). The band intensities were quantified using Multi Gauge software Version 2.3 (FUJIFILM), and values were normalized for the G+C content according to the DNA sequence.
Treatment with antisense oligonucleotides targeting the 3′ and 5′ splice sites caused increased skipping of exon 20.
Additional oligonucleotides were designed targeting the first 30-nucleotide stretch of ISS-40. These oligonucleotides were designed by choosing sequences shifted in one nucleotide increments upstream and downstream (i.e., a “microwalk”) of ISS-40, starting from the +6 position in exon 20. The antisense oligonucleotides are presented in Table 2 and FIG. 4D, and were designed as uniform 2′-O-methoxyethyl ribose (MOE) oligonucleotides with phosphate backbones. Each oligonucleotide is 20 nucleosides in length. All cytosine residues throughout the oligonucleotide are 5-methylcytosines. ‘Start Site’ indicates the 5′-most nucleoside to which the oligonucleotide is targeted in the human gene sequence. “Stop site” indicates the 3′-most nucleoside to which the oligonucleotide is targeted in the human gene sequence. Each oligonucleotide listed in Table 2 is targeted to intron 20 of the human IKBKAP genomic sequence (the complement of GENBANK Accession No NT_008470.16 truncated from nucleotides 13290828 to Ser. No. 13/358,424, designated herein as SEQ ID NO: 1). These oligonucleotides were tested in vitro.
Cultured HEK-293 cells harboring the mt19-21 minigene vector construct at a density of 7×10^5 cells per well were transfected using electroporation (Gene Pulsar II apparatus, Bio-Rad) with 0.007 nmol antisense oligonucleotide, as previously described (Hua, Y., et al., 2007. PLoS Biol 5:e73). […]

Row | Molecule | % inclusion (exon 20) [3] [%] | other results
1 | c1coc(CNc2ncnc3nc[nH]c23)c1 [kinetin, 6-furfurylaminopurine, reference compound] | – | IKAP protein levels, in words ([1]; GM04899, kinetin, under these conditions): did not increase IKAP protein levels; Percent increase in protein band intensity (IKAP) ([1]; GM04899, kinetin-treated, compared to control oligonucleotide-treated bands): 11%; % inclusion of exon 20 [2]: 98%
2 | ISIS 421994: uniform 2′-MOE 20-mer, phosphate backbone; TAGTCGCAAACAGTACAATG, SEQ ID NO 63, intron 20 (eTeAeGeTe[5mC]eGe[5mC]eAeAeAe[5mC]eAeGeTeAe[5mC]eAeAeTeG; splice-switching) | 91 | –
3 | ISIS 421995: uniform 2′-MOE 20-mer, phosphate backbone; CTAGTCGCAAACAGTACAAT, SEQ ID NO 64, intron 20 (e[5mC]eTeAeGeTe[5mC]eGe[5mC]eAeAeAe[5mC]eAeGeTeAe[5mC]eAeAeT; splice-switching) | 92 | –
4 | ISIS 421996: uniform 2′-MOE 20-mer, phosphate backbone; ACTAGTCGCAAACAGTACAA, SEQ ID NO 65, intron 20 (eAe[5mC]eTeAeGeTe[5mC]eGe[5mC]eAeAeAe[5mC]eAeGeTeAe[5mC]eAeA; splice-switching) | 89 | –
5 | ISIS 421997: uniform 2′-MOE 20-mer, phosphate backbone; AACTAGTCGCAAACAGTACA, SEQ ID NO 66, intron 20 (eAeAe[5mC]eTeAeGeTe[5mC]eGe[5mC]eAeAeAe[5mC]eAeGeTeAe[5mC]eA; splice-switching) | 81 | –
6 | ISIS 421998: uniform 2′-MOE 20-mer, phosphate backbone; TAACTAGTCGCAAACAGTAC, SEQ ID NO 67, intron 20 (eTeAeAe[5mC]eTeAeGeTe[5mC]eGe[5mC]eAeAeAe[5mC]eAeGeTeAe[5mC]; splice-switching) | 81 | –
7 | ISIS 421999: uniform 2′-MOE 20-mer, phosphate backbone; CTAACTAGTCGCAAACAGTA, SEQ ID NO 68, intron 20 (e[5mC]eTeAeAe[5mC]eTeAeGeTe[5mC]eGe[5mC]eAeAeAe[5mC]eAeGeTeA; splice-switching) | 82 | –
8 | ISIS 422000: uniform 2′-MOE 20-mer, phosphate backbone; GCTAACTAGTCGCAAACAGT, SEQ ID NO 69, intron 20 (eGe[5mC]eTeAeAe[5mC]eTeAeGeTe[5mC]eGe[5mC]eAeAeAe[5mC]eAeGeT; splice-switching) | 63 | –
